# Laboratory results taken from PMC4904354 (Journal of Cerebral Blood Flow & Metabolism, 2015).
# Where two headings read alike, the source gives them in different places.
# Columns and labels:
# [1] = target: NMDA receptor ion-channel; conditions: read-out: apparent affinity value against [^3H]MK-801 (Ki); no reference given; cited from earlier work
# [2] = S-ketamine challenge: plasma concentration and tolerability; type: in vivo, human
# NMDA receptor [3] = conditions: cited from earlier work
# [4] = cited from earlier work
# NMDA receptor [5] = conditions: cited from earlier work; remark: listed apart in the source
# [6] = Plasma metabolite analysis of [^11C]GMOM; type: in vivo, human; conditions: for parent fraction in plasma: mean ± SD, all scans N = 15
# [7] = tested on: N-methyl-D-aspartate receptor; type: in vivo, human; conditions: for K1, rate constant of transport, mean (SD) / Ki, net influx rate constant, mean (SD) / VND(K1/k2), nondisplaceable distribution volume, mean (SD): 2T3k_VB model, 90 min data
# [8] = followed by prolonged modest decrease until 90 min
# [9] = cerebellum, after S-ketamine 0.3 mgkg^−1 i.v., N = 6
# [10] = frontal cortex, baseline, N = 9
# [11] = occipital cortex, baseline, N = 9
# [12] = parietal cortex, baseline, N = 9
# [13] = striatum, after S-ketamine 0.3 mgkg^−1 i.v., N = 6
# [14] = temporal cortex, baseline, N = 9
# [15] = thalamus, after S-ketamine 0.3 mgkg^−1 i.v., N = 6
# [16] = whole brain gray matter, baseline, N = 9
smiles,measurement,setting,value
CN[C@]1(c2ccccc2Cl)CCCCC1=O [S-ketamine],Ki,[1],~1000 nM
same,mean plasma level of S-ketamine during the blocking scans,"[2]; 0.3 mgkg^−1 i.v., pseudo-steady state, healthy volunteers",56.2 ngml^−1
same,tolerability of the administered dose during scans,"[2]; 0.3 mgkg^−1 i.v., healthy volunteers",able to tolerate
same,mean S-ketamine plasma concentration,"[2]; at the end of the scan, six subjects, 0.3 mg kg^−1 i.v. pseudo-steady state",38 ng/mL
CSc1cccc(N(C)C(N)=Nc2cc(SCCF)ccc2Cl)c1 [[[18]F]GE-179],Kd,NMDA receptor [3],2.4 nM
CSc1cccc(N(C)C(N)=Nc2cc(SCC[18F])ccc2Cl)c1 [[[18]F]GE-179],log D7.4,[4]; pH 7.4,2.49
same,mean parent fraction remaining in plasma,NMDA receptor [5]; at 20 min postinjection,50%
same,time of peak uptake in brain TACs,NMDA receptor [5]; [8],around 20 min
CSc1ccc(Cl)c(NC(=N)N(C)c2cccc(S[11CH3])c2)c1 [[^11C]CNS5161],log P,[4],1.92
CSc1cccc(N(C)C(=N)Nc2cc(SC)ccc2Cl)c1 [[^11C]CNS5161],Kd,NMDA receptor [3],1.9 ± 0.3 nM
"CSc1ccc(Cl)c(NC(=N)N(C)c2cccc(O[11CH3])c2)c1 [[^11C]GMOM, N-(2-chloro-5-thiomethylphenyl)-N′-(3-[^11C]methoxy-phenyl)-N′-methylguanidine]",log P,[4],2.34
same,parent fraction in plasma,[6]; at 5 min p.i.,0.80 ± 0.06
same,mean parent fraction remaining in plasma,[6]; at 20 min postinjection,50%
same,parent fraction in plasma,[6]; at 60 min p.i.,0.21 ± 0.08
same,nonpolar metabolites fraction in plasma,[6]; at 90 min p.i.,1.5 ± 2.0%
same,"K1, rate constant of transport, mean (SD)",[7]; [9],0.45 (0.06) min^−1
same,"Ki, net influx rate constant, mean (SD)",[7]; [9],0.005 (0.008) min^−1
same,"VND(K1/k2), nondisplaceable distribution volume, mean (SD)",[7]; [9],9.37 (0.98)
same,"K1, rate constant of transport, mean (SD)","[7]; cerebellum, baseline, N = 9",0.46 (0.07) min^−1
same,"Ki, net influx rate constant, mean (SD)","[7]; cerebellum, baseline, N = 9",0.014 (0.010) min^−1
same,"VND(K1/k2), nondisplaceable distribution volume, mean (SD)","[7]; cerebellum, baseline, N = 9",8.43 (2.02)
same,time of peak uptake in brain TACs,[7]; [8],around 20 min
same,"K1, rate constant of transport, mean (SD)",[7]; [10],0.48 (0.07) min^−1
same,"Ki, net influx rate constant, mean (SD)",[7]; [10],0.023 (0.014) min^−1
same,"VND(K1/k2), nondisplaceable distribution volume, mean (SD)",[7]; [10],8.54 (2.00)
same,"K1, rate constant of transport, mean (SD)","[7]; hippocampus, baseline, N = 9",0.36 (0.07) min^−1
same,"Ki, net influx rate constant, mean (SD)","[7]; hippocampus, baseline, N = 9",0.028 (0.012) min^−1
same,"VND(K1/k2), nondisplaceable distribution volume, mean (SD)","[7]; hippocampus, baseline, N = 9",7.82 (2.25)
same,"K1, rate constant of transport, mean (SD)",[7]; [11],0.47 (0.04) min^−1
same,"Ki, net influx rate constant, mean (SD)",[7]; [11],0.021 (0.012) min^−1
same,"VND(K1/k2), nondisplaceable distribution volume, mean (SD)",[7]; [11],8.53 (1.73)
same,"K1, rate constant of transport, mean (SD)",[7]; [12],0.46 (0.05) min^−1
same,"Ki, net influx rate constant, mean (SD)",[7]; [12],0.021 (0.014) min^−1
same,"VND(K1/k2), nondisplaceable distribution volume, mean (SD)",[7]; [12],8.81 (1.98)
same,"K1, rate constant of transport, mean (SD)",[7]; [13],0.50 (0.08) min^−1
same,"Ki, net influx rate constant, mean (SD)",[7]; [13],0.007 (0.007) min^−1
same,"VND(K1/k2), nondisplaceable distribution volume, mean (SD)",[7]; [13],9.88 (0.86)
same,"K1, rate constant of transport, mean (SD)","[7]; striatum, baseline, N = 9",0.50 (0.06) min^−1
same,"Ki, net influx rate constant, mean (SD)","[7]; striatum, baseline, N = 9",0.021 (0.015) min^−1
same,"VND(K1/k2), nondisplaceable distribution volume, mean (SD)","[7]; striatum, baseline, N = 9",9.15 (1.85)
same,"K1, rate constant of transport, mean (SD)",[7]; [14],0.41 (0.06) min^−1
same,"Ki, net influx rate constant, mean (SD)",[7]; [14],0.020 (0.012) min^−1
same,"VND(K1/k2), nondisplaceable distribution volume, mean (SD)",[7]; [14],8.63 (2.06)
same,"K1, rate constant of transport, mean (SD)",[7]; [15],0.52 (0.09) min^−1
same,"Ki, net influx rate constant, mean (SD)",[7]; [15],0.006 (0.007) min^−1
same,"VND(K1/k2), nondisplaceable distribution volume, mean (SD)",[7]; [15],11.32 (1.58)
same,"K1, rate constant of transport, mean (SD)","[7]; thalamus, baseline, N = 9",0.50 (0.08) min^−1
same,"Ki, net influx rate constant, mean (SD)","[7]; thalamus, baseline, N = 9",0.024 (0.019) min^−1
same,"VND(K1/k2), nondisplaceable distribution volume, mean (SD)","[7]; thalamus, baseline, N = 9",10.14 (2.56)
same,"K1, rate constant of transport, mean (SD)",[7]; [16],0.45 (0.05) min^−1
same,"Ki, net influx rate constant, mean (SD)",[7]; [16],0.021 (0.012) min^−1
same,"VND(K1/k2), nondisplaceable distribution volume, mean (SD)",[7]; [16],8.47 (1.88)
CN(C(=N)Nc1cccc2ccccc12)c1cccc(I)c1 [[^123I]CNS1261],Kd,NMDA receptor [3],4.2 ± 0.4 nM
